Several values for one entry are separate records, joined by “and”; a condition that tells them apart may be missing. Equal values may be shown once.
Experiment: Human HepG2 cell viability assay in 384 well format
Format: toxicity, cell-based
Set-up: dose 125 nL, time 70.5 hour; cytotoxicity at 70.5 h: concentration not given beside the values
Details: HepG2 cells, read-out: Inhibition

SMILES	cytotoxicity at 70.5 h [%]
CC(C)(C)n1cc(C(=O)NCCN2CCOCC2)c2cccnc21	6.12
Cc1csc(N2CCN(CC(=O)Nc3cc(C)nn3C)CC2C)n1 (stereo not given)	2.09
O=S(=O)(c1cccs1)N1CCN2C[C@H](OCC3CC3)C[C@H]2C1	-3.74
Cn1cnnc1C1CCN(C(=O)COCc2ccccc2Cl)CC1	-11.8
Cc1occc1C(=O)N1CCc2ncnc(-c3cnn(C)c3)c2CC1	-8.07
CNC(=O)c1cn[nH]c1C1(C)CCCN(CC2(O)CCCCC2)C1 (stereo not given)	-6.79
Cc1cnn(CCNCc2ccc(C#N)cc2F)c1	-13.7
Cc1nc(N2CCOCC2)nc2c1CCN(C(=O)C1(C#N)CC1)CC2	-9.06
CN(Cc1cccc2cnccc12)C(=O)CCc1n[nH]c2c1CCCC2	-9.31
Cc1cccc(CN2C[C@@H]3CN(C(=O)c4ccsc4)C[C@@H]3C2=O)n1	-2.24
CC(C)(C)n1cc(CNC2CCN(C(=O)c3ccncc3)CC2)cn1	-1.24
CN1CCN(C(=O)c2csnn2)c2ccccc21	20.8
CC(NCc1cc2cc(F)ccc2o1)c1nnc2n1CCCC2 (stereo not given)	-5.97
Cc1cc(=O)n2nc(Oc3cc(Cl)cc(Cl)c3)sc2n1	-19.3
COc1ccccc1C1CC(=O)Nc2c1c(=O)[nH]n2C(C)C (stereo not given)	25.6
Cc1cc(C)n(CC2CCCCN2C(=O)c2cnn(C)c2)n1 (stereo not given)	8.99
CCCc1cc(N2CCCCC2Cn2cc(C)cn2)n2ncnc2n1 (stereo not given)	-6.83
O=C(C[C@@H]1COC[C@H]2CN(CC3CC3)C[C@@H]12)N1CCCCO1	5.39
Cc1nn(C)cc1CN(C)Cc1cc2c(cc1OC(F)F)OCO2	-7.7
Cc1csc(C(Cc2cccs2)NCc2cc3c(cc2C)OCO3)n1 (stereo not given)	17.6
NC(=O)c1cnn2c1NCC(CNCCc1cccs1)C2 (stereo not given)	-5.82
COCC(=O)NC1CC2(CCN(CCN(C)C)CC2)c2ccccc21 (stereo not given)	-2.09
CC(C)c1nccn1CCCNC(=O)c1ccc(-c2cccnc2)nc1	-9.12

SMILES	cytotoxicity at 70.5 h [%]
O=C(CN1CCOCC1)N(c1ccccc1)c1ccccc1	-11.2
Nc1nccnc1C1CN(C(=O)c2ccnnc2)CCO1 (stereo not given)	-6.55
COc1ccccc1C(C)(C)NCc1ccc(C)o1	-5.83
NC(=O)c1cn[nH]c1C1CCCN1C(=O)c1ccccn1 (stereo not given)	-4.23
CCOCC(O)CNc1cncc(Br)c1 (stereo not given)	-1.77
CCC(=O)NCC(=O)NC(C)c1sc(-c2ccccc2F)nc1C (stereo not given)	10.3
Cc1nc(NC(=O)NCCCN2CCC(C(N)=O)CC2)sc1C	-19.5
CC(C)N1CCOC(Cc2nn3c(Cc4ccccc4)nnc3s2)C1 (stereo not given)	-18.2
Cc1ccc(CNCc2nnc3n2CC(C(F)(F)F)CC3)o1 (stereo not given)	2.88
Cc1nc(N)nc(N2CCOc3ccc(CO)cc3C2)c1C	25.5
CCC(=O)N1CCCN(C(=O)c2cc(C)cc(Br)c2O)CC1	-1.86
CCS(=O)(=O)N1C[C@@H](c2nnc(C)o2)C[C@H]2OCC[C@H]21	-9.81
O=C(NCCOc1ccc(Cl)cc1)N1CCS(=O)(=O)CC1	9.92
Cc1ccnc(NC(=O)c2ccc(-n3ncc(C#N)c3N)cc2)c1	-6.86
COc1cc(-c2n[nH]c(CC#N)n2)cc(OC)c1OC	51.6
CN1CCn2c(-c3ccccc3)cnc2C12CCN(CC1CC1)CC2	-3.45
O=C(NCCNc1ncccn1)c1ccc(Cl)s1	-5.84
Cc1cc(NC(=O)c2ccc(F)cc2Cl)n(C)n1	6.57
CCOC1CCCN(C(=O)c2cnc3c(cnn3C3CCCC3)c2)C1 (stereo not given)	-18
CC(C)OCc1noc(C2CCCOC2)n1 (stereo not given)	-10.6
Cc1cn2c(n1)CCC(NC(=O)CNS(C)(=O)=O)C2 (stereo not given)	-4.61
CNC(=O)c1cn[nH]c1C1(C)CCCN(Cc2ccccc2OC)C1 (stereo not given)	3.23
COc1ccc(CN(C)c2ncc(S(N)(=O)=O)s2)c(OC)c1	-4.13

SMILES	cytotoxicity at 70.5 h [%]
CN(C)C[C@]12COC[C@H]1CN(Cc1ccc3ccccc3n1)C2	-11.7
Cc1nc(CN2CCc3cncnc3C2)oc1C	-5.69
c1ccc(Cn2cc(CNCC3CNc4ccnn4C3)cn2)cc1 (stereo not given)	32.4
CC(C)NC(=O)N[C@H]1C[C@@H](Cc2cc(CN3CCOCC3)on2)C1(C)C	-8.22
CN1CCc2c(C#N)c(NCc3ccco3)n3cnnc3c2C1	-7.42
Cc1ccc(-n2ncc(C(=O)NCC3CCS(=O)(=O)C3)c2C)cc1 (stereo not given)	-4.72
CNC(=O)c1ccc(C2CN(C(=O)c3coc(C)n3)CCO2)nc1 (stereo not given)	-11.4
O=C(c1cc2cc(F)ccc2[nH]1)N1CCC(Nc2ccc(F)cc2)CC1	-4.25
O=C(CCn1ccc2cc(Br)ccc21)NCc1ccc(C(=O)O)cc1	-5.77
CC(c1ncc(C(C)(C)C)o1)N1CCN(Cc2ccco2)CC1 (stereo not given)	-5.45
Cc1ncsc1C(=O)NCc1ccnc(OCC(F)(F)F)c1	-11.3
CN(C)c1ncccc1CNS(=O)(=O)c1cc(F)cc(F)c1	-6.43
Cc1cc(C)cc(OCCN(C)Cc2cscn2)c1	0.706
O=C(Cn1cnc2cc3c(cc21)OCCCO3)NC1CCCCC1	-1.58
COC1COC2(CCN(C(=O)c3cscn3)CC2)C1 (stereo not given)	-6.82
Cc1cc(C)n(CC2CCCN2C(=O)c2cccc3c2OCO3)n1 (stereo not given)	-3.49
O=C(c1ccccc1)N1C[C@@H]2CC[C@H](C1)N(C(=O)CN1CCOCC1)C2	3.79
CCNC(=O)NC[C@H]1Cn2c(-c3ccccc3)cnc2CO1	-3.79
C(=C\c1ccc(CN2CCCC2)cn1)/c1ccccc1	6.88
CN1CCC(CNC(=O)c2cccc(C(F)(F)F)c2)c2ccccc21 (stereo not given)	0.294
Cc1noc(CNc2ccccc2CC(=O)N(C)C)n1	-4.56
Cc1ccc(F)cc1NC(=O)C1CCCN1C(=O)C(C)C (stereo not given)	-5.39
O=C(Nc1cnc2n1CCCC2)C1CCNCC1	26.5

SMILES	cytotoxicity at 70.5 h [%]
CC(=O)N1CC2(CCCC2)c2ccccc21	-3.2
CCc1ccc(C2CCCN2C(=O)NCC(=O)NCC(C)C)o1 (stereo not given)	21.4
NC(=O)C1CCN(CCc2ccc(NCc3ccoc3)cc2)CC1	-5.59
O=C1NC2(CCN(Cc3ccoc3)CC2)CC1c1ccncc1 (stereo not given)	11
CC(C)Cc1noc(CN(C)c2cc(C(C)C)nc3ccnn23)n1	5.41
O=C(CCn1cncn1)N1C[C@H]2CC[C@@H]1CN(Cc1ccncc1)C2	16.7
CN(C)CCn1nc(C2CCN(S(=O)(=O)N(C)C)C2)c2cccnc21 (stereo not given)	-3.16
COc1c(Br)c(C(=O)NC2CCCC2)nn1C	-9.06
Cc1nn(C)c(Cl)c1C1CCCN1C(=O)c1cc(C2CC2)on1 (stereo not given)	3.63
COc1ccc2c(ccn2CCC(=O)O)c1	27.9
O=C(COCc1ccccc1)N1CCN(c2ccc(Cl)cn2)CC1	-4.29
CS(=O)(=O)CCn1ccc(NC(=O)Cc2c[nH]c3ccccc23)n1	5.18
N#Cc1cc(F)c(N2CCC(NS(=O)(=O)c3cccs3)CC2)c(F)c1	-20
O=C(Nc1ccccc1)c1nn(C2CCS(=O)(=O)C2)c2c1CCCC2 (stereo not given)	-11.3
c1cc2c(cc1Cn1cc(C3CCOC3)nn1)CCCO2 (stereo not given)	-13.2
CN(C)CCNc1cc(-c2ccccc2C(N)=O)c2cc[nH]c2n1	-8.6
COc1ccc(Br)cc1CCC(=O)N1CCCC1	-0.161
O=C1N(CC2CCC2)CCCC12CCN(S(=O)(=O)c1cccnc1)C2 (stereo not given)	-4.23
CC(C)OC(=O)N1CCC(Cc2ccc(C(=O)O)cc2)C1 (stereo not given)	27.1
NC(=O)N1CCC2(CC1)CN(Cc1cccnc1)C(=O)CO2	-7.6
CC1CCC(NC(=O)c2nn(C)cc2Br)CC1 (stereo not given)	-7.64
CCOCC1CN(C(=O)c2cccs2)Cc2nn(C)cc21 (stereo not given)	-2.33
Cc1ccc(N2CCCC(N(C)Cc3c(C)noc3C)C2)nn1 (stereo not given)	25.3

SMILES	cytotoxicity at 70.5 h [%]
C[C@H](NC(=O)C1(N(C)Cc2ccccc2)Cc2ccccc2C1)C(N)=O	-2.36
CC(CNC(=O)NCc1ccc2c(c1)OCO2)CC1(C)OCCO1 (stereo not given)	-5.24
COCC1CN(C(=O)Nc2cc(Cl)ccc2F)CCO1 (stereo not given)	-8.58
COC(=O)c1cccc(C2CNCCN2C)c1 (stereo not given)	12
COc1c(CNC2CCCN(c3ncccn3)C2)c(C(C)C)nn1C (stereo not given)	18.4
CN1CCN(C(=O)c2ccc(Cn3cc(Br)cn3)cc2)CC1	-5.22
CCCc1nnsc1C(=O)NCC(O)c1ccc(SC)cc1 (stereo not given)	28.8
CCC(C)(CC(=O)O)NC(=O)Cc1ccccc1F (stereo not given)	26.6
CC(C)CCN(C)Cc1ccccc1-c1nc(C(C)C)cc(=O)[nH]1	0.496
Cc1cc(O)nc(C2CN(CC3(O)CCOCC3)CCO2)n1 (stereo not given)	8.89
CNc1cncc(C2CCCN2Cc2ccnc(C)n2)n1 (stereo not given)	-0.507
CCc1cc(CNC(=O)N2CCN(c3nc(C)c(C)s3)CC2)on1	-3.25
Cc1cc(C)c(OCC(=O)NS(=O)(=O)c2cccnc2)c(C)c1	-3.3
O=C(c1cccnc1)N1C[C@H]2CN(Cc3cccc(F)c3)C(=O)[C@H]2C1	-3.89
CN(C)c1cc(C(=O)N2CCCN(Cc3cscn3)CC2)ccn1	-8.49
CC(C)(C)OC(=O)N(CCNS(=O)(=O)N1CCOCC1)C1CC1	-3.4
CC(=O)N1CCCn2nc(CNS(=O)(=O)c3cc(C)cs3)cc2C1	-4.2
Cn1cc(CN2CCCC(CCc3ccc(F)cc3)C2)cn1 (stereo not given)	8.18
CCn1cc(CN2CCc3nc(N4CCOCC4)nc(O)c3CC2)cn1	7.44
CCCn1nc2c(cc1=O)CN(CCN1CCCC1=O)CC2	-10.7
CC(=O)N1CCN(CCNC(=O)NC(C)Cn2ccnc2)CC1 (stereo not given)	-2.74
CC(=O)NC1CCCN(Cc2ccc(OCc3ccccn3)cc2)C1 (stereo not given)	-6.3

Same assay, conditions: hepg2, 70.5 h, 70.5 h

SMILES	Inhibition
CC1=Nc2c(c(=O)[nH]n2C2CCCC2)C(c2ccc(C(=O)O)cc2)S1 (stereo not given)	-12.72% and -17.34%
